The subject of one series is Hela cells. Description: XTT proliferation assay for cellular toxicity. It is filed as cell-based. As to the method: (§1) The anti-HIV-1 activity of target compounds was evaluated in a single cycle replication assay evaluated in our laboratory and reported previously. In this assay, the single-cycle replicable HIV NL4-3 virions (200 ng p24) were inoculated concurrently with compounds in different concentrations to the Hela cells. The inhibition rate (%) of p24 expression was measured by capture ELISA (Biomerieux, France) 72 hours after inoculation. Percentage inhibition of p24 expression in treated culture was calculated as inhibition rate of p24 (%). The XTT (sodium3-[1(phenylaminocarbonyl)-3,4-tetrazolium]-bis(4-methoxy-6-nitro)benzene sulfonic acid) proliferation assay was conducted to evaluate the cellular toxicity according to the kit instructions. The cytotoxic concentration that reduced the number of viable cells by 50% (CC50) was calculated after the determination of p24 load in the HIV-1 replication assay plates ([37]-[40]).
(§2) Fourteen 1,2-benzothiazine-3-carboxamide 1,1-dioxide derivatives containing different substituents at N-2 positions (12 and 13a-m) were synthesized and evaluated to inhibit the single-cycle HIV replication inhibition HeLa cell culture. Cytotoxicity of compounds was also tested in the same cell line to ensure the safety of compounds. Raltegravir was used as a positive control. Anti-HIV activity and cytotoxicity of compounds were expressed as EC50 and CC50, respectively. Selectivity Index (SI) was calculated using CC50/EC50 ratio.

Series [1] relates to single-cycle replicable HIV NL4-3 virions in Hela cells. Description: single cycle HIV-1 replication assay (inhibition of p24 expression, capture ELISA). It counts as cell-based. As for the experimental part:
as §1, §2

Series [2] in a line: XTT proliferation assay for cellular toxicity. It is filed as cell-based. The settings on record: human; cytotoxicity in Hela cells, XTT. As for the experimental part: as §1, §2
In series [3] the test system is single-cycle replicable HIV NL4-3 virions in Hela cells. More on the design: method as in previously reported (b6). The settings on record: piroxicam value in Table 1, said in b54 to be previously reported; ref previously reported (b6); cited from earlier work.
Setting [4] is: Human immunodeficiency virus 1, NL43, HeLa, 72 h.

Read-outs that look alike come from different tables or passages of the source.

As to “2-(3,4-Dichlorobenzyl)-4-hydroxy-2H-benzo[e][1,2]thiazine-3-carboxamide 1,1-dioxide [Compound 13i]”, the CC50 in the series with Hela cells was determined as 510 µM. Besides, the EC50 in series [1] (anti-HIV activity, single-cycle HIV NL4-3 in Hela cells, p24 at 72 hours, read-out: EC50) came out at 110 µM.

Turning to `NC(=O)C1=C(O)c2ccccc2S(=O)(=O)N1` [Compound 12, 4-hydroxy-2H-benzo[e][1,2]thiazine-3-carboxamide 1,1-dioxide], the melting point is 244 °C (dec.). In series [2], this compound yielded a CC50 at 72 h of 950 µM. In series [1] (setting [4]), this compound came in with an EC50 of 105 µM.

The compound `CCN1C(C(N)=O)=C(O)c2ccccc2S1(=O)=O` [Compound 13a, 2-Ethyl-4-hydroxy-2H-benzo[e][1,2]thiazine-3-carboxamide 1,1-dioxide] displayed a CC50 at 72 h in series [2] of 550 µM. Besides, the EC50 in series [1] (setting [4]) worked out at 80 µM.

As to `NC(=O)C1=C(O)c2ccccc2S(=O)(=O)N1CC1CCCCC1` [Compound 13b, 2-(Cyclohexylmethyl)-4-hydroxy-2H-benzo[e][1,2]thiazine-3-carboxamide 1,1-dioxide], the melting point lay within 263 to 264 °C. The compound further yielded a CC50 at 72 h in series [2] of 400 µM. In series [1] (setting [4]), this compound had an EC50 of 100 µM.

In turn, `NC(=O)C1=C(O)c2ccccc2S(=O)(=O)N1Cc1ccccc1` [Compound 13c, 2-Benzyl-4-hydroxy-2H-benzo[e][1,2]thiazine-3-carboxamide 1,1-dioxide] registered a melting point of 270 to 275 °C. Also, the CC50 at 72 h in series [2] is 600 µM. The response in series [1] (setting [4]) was half-maximal at 45 µM (EC50).

In series [2], `Cc1ccc(CN2C(C(N)=O)=C(O)c3ccccc3S2(=O)=O)cc1` [Compound 13d, 4-Hydroxy-2-(4-methylbenzyl)-2H-benzo[e][1,2]thiazine-3-carboxamide 1,1-dioxide] returned a CC50 at 72 h of 680 µM. A half-maximal response in series [1] (setting [4]) (EC50) required 25 µM.

For `Cc1ccccc1CN1C(C(N)=O)=C(O)c2ccccc2S1(=O)=O` [Compound 13e, 4-Hydroxy-2-(2-methylbenzyl)-2H-benzo[e][1,2]thiazine-3-carboxamide 1,1-dioxide], the melting point fell in the range of 268 to 271 °C. The same compound registered a CC50 at 72 h in series [2] of 650 µM. Also, the EC50 in series [1] (setting [4]) was 55 µM.

With `COc1cccc(CN2C(C(N)=O)=C(O)c3ccccc3S2(=O)=O)c1` [Compound 13f, 4-Hydroxy-2-(3-methoxybenzyl)-2H-benzo[e][1,2]thiazine-3-carboxamide 1,1-dioxide], the melting point fell in the range of 273 to 275 °C. Also, the CC50 at 72 h in series [2] was found to be 640 µM. The same compound had an EC50 in series [1] (setting [4]) of 50 µM.

Consider `NC(=O)C1=C(O)c2ccccc2S(=O)(=O)N1Cc1ccccc1Cl` [Compound 13g, 2-(2-Chlorobenzyl)-4-hydroxy-2H-benzo[e][1,2]thiazine-3-carboxamide 1,1-dioxide], for which, in series [2], half-maximal cytotoxicity (CC50 at 72 h) was put at 650 µM. In addition, in series [1] (setting [4]), the EC50 is 40 µM.

For the compound `NC(=O)C1=C(O)c2ccccc2S(=O)(=O)N1Cc1ccc(Cl)cc1` [Compound 13h, 2-(4-Chlorobenzyl)-4-hydroxy-2H-benzo[e][1,2]thiazine-3-carboxamide 1,1-dioxide], in series [2], half-maximal cytotoxicity (CC50 at 72 h) was put at 610 µM. Also, the EC50 in series [1] (setting [4]) stood at 55 µM.

With `NC(=O)C1=C(O)c2ccccc2S(=O)(=O)N1Cc1ccccc1F` [Compound 13j, 2-(2-Fluorobenzyl)-4-hydroxy-2H-benzo[e][1,2]thiazine-3-carboxamide 1,1-dioxide], the melting point was in the range of 268 to 273 °C. This compound also displayed a CC50 at 72 h in series [2] of 680 µM. In series [1] (setting [4]), this compound gave an EC50 of 35 µM.

`NC(=O)C1=C(O)c2ccccc2S(=O)(=O)N1Cc1cccc(F)c1` [Compound 13k, 2-(3-Fluorobenzyl)-4-hydroxy-2H-benzo[e][1,2]thiazine-3-carboxamide 1,1-dioxide] returned a melting point of 271 to 275 °C. This compound also gave a CC50 at 72 h in series [2] of 550 µM. In series [1] (setting [4]), this compound had an EC50 of 60 µM.

As for `NC(=O)C1=C(O)c2ccccc2S(=O)(=O)N1Cc1ccc(F)cc1` [Compound 13l, 2-(4-Fluorobenzyl)-4-hydroxy-2H-benzo[e][1,2]thiazine-3-carboxamide 1,1-dioxide], the CC50 at 72 h in series [2] was found to be 650 µM. A half-maximal response in series [1] (setting [4]) (EC50) required 20 µM.

`NC(=O)C1=C(O)c2ccccc2S(=O)(=O)N1Cc1ccc([N+](=O)[O-])cc1` [Compound 13m, 4-Hydroxy-2-(4-nitrobenzyl)-2H-benzo[e][1,2]thiazine-3-carboxamide 1,1-dioxide]: the melting point was 288 °C (dec.). The compound also displayed a CC50 at 72 h in series [2] of 650 µM. This compound showed an EC50 in series [1] (setting [4]) of 25 µM.

As to `CN1C(C(=O)Nc2ccccn2)=C(O)c2ccccc2S1(=O)=O` [Piroxicam, piroxicam, reference compound], the EC50 in series [3] is 120 µM. It took 900 µM to reach half-maximal cytotoxicity in series [2] (CC50 at 72 h).

The compound `Cc1nnc(C(=O)NC(C)(C)c2nc(C(=O)NCc3ccc(F)cc3)c(O)c(=O)n2C)o1` [Raltegravir, raltegravir, reference compound] registered a CC50 at 72 h in series [2] of over 500 µM. For the same compound, in series [1] (setting [4]), the EC50 was 0.9 µM.

Values taken from paper PMC8653674, “Design, Synthesis, Docking Study and Biological Evaluation of 4-Hydroxy-2H-benzo[e][1,2]thiazine-3-carboxamide 1,1-dioxide Derivatives as Anti-HIV Agents” (Iranian Journal of Pharmaceutical Research : IJPR, 2021).
